Data from ChEMBL document CHEMBL4043296 (J Med Chem, 2018).
pIC50, pKi: −log10 of the molar value.

Key:
D(2) dopamine receptor = D(2) dopamine receptor (Homo sapiens, UniProt P14416); assay: Displacement of [3H]N-methylspiperone from human dopamine D2 receptor expressed in HEK293 cell membranes after 1 hr by scintillation counting method
D(3) dopamine receptor = D(3) dopamine receptor (Homo sapiens, UniProt P35462); assay: Displacement of [3H]N-methylspiperone from human dopamine D3 receptor expressed in HEK293 cell membranes after 1 hr by scintillation counting method
D(3) dopamine receptor, sequence (P35462 whole entry): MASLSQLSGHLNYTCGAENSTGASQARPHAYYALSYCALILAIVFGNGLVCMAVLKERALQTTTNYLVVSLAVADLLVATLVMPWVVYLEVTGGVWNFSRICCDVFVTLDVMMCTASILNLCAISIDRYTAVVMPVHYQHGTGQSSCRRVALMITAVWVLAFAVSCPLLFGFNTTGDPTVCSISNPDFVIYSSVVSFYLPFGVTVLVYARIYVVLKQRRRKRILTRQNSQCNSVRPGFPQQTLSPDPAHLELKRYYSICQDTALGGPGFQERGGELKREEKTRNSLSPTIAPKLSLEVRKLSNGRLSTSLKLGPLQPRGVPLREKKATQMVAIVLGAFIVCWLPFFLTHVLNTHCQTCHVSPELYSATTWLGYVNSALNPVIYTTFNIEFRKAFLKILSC

D(4) dopamine receptor [1] = target: T1, D(4) dopamine receptor (Homo sapiens, UniProt P21917); assay: Displacement of [3H]N-methylspiperone from human dopamine D4 receptor expressed in HEK293 cell membranes after 1 hr by scintillation counting method
T1 sequence (P21917 whole entry): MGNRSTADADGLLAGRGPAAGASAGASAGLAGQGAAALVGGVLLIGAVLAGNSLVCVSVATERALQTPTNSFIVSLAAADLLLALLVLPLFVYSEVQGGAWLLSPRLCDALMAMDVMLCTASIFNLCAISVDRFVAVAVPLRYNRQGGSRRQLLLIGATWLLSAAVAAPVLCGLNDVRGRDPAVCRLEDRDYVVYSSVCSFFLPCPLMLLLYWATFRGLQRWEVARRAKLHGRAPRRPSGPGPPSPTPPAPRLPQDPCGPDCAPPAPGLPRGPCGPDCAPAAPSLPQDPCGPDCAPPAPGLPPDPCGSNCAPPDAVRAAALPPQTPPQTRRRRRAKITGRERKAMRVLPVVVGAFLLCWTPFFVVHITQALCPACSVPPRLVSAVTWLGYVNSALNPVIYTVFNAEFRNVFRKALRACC

Homo sapiens = species on record: Homo sapiens; assay: Selectivity ratio of Ki for human dopamine D2 receptor to Ki for human dopamine D4 receptor
[2] = target: T2, Alpha-1A adrenergic receptor (Homo sapiens, UniProt P35348); assay: Displacement of [3H]prazosin from human recombinant alpha-1A adrenergic receptor expressed in CHO cell membranes after 30 mins by liquid scintillation counting method
T2 sequence (P35348 whole entry): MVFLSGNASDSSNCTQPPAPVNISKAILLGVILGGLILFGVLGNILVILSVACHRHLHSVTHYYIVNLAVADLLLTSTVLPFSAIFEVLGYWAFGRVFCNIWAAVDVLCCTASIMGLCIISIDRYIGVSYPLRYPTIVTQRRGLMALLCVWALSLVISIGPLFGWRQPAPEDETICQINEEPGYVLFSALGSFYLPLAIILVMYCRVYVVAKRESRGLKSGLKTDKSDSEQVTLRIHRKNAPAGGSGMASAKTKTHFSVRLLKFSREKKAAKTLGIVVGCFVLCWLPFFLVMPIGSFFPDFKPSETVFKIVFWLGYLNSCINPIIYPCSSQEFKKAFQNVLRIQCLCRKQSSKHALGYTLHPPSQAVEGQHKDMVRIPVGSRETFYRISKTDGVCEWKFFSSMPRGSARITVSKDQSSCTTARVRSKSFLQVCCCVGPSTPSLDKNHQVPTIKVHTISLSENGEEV

[3] = target: T3, Alpha-1B adrenergic receptor (Homo sapiens, UniProt P35368); assay: Displacement of [3H]prazosin from human recombinant alpha-1B adrenergic receptor expressed in CHO cell membranes after 30 mins by liquid scintillation counting method
T3 sequence (P35368 whole entry): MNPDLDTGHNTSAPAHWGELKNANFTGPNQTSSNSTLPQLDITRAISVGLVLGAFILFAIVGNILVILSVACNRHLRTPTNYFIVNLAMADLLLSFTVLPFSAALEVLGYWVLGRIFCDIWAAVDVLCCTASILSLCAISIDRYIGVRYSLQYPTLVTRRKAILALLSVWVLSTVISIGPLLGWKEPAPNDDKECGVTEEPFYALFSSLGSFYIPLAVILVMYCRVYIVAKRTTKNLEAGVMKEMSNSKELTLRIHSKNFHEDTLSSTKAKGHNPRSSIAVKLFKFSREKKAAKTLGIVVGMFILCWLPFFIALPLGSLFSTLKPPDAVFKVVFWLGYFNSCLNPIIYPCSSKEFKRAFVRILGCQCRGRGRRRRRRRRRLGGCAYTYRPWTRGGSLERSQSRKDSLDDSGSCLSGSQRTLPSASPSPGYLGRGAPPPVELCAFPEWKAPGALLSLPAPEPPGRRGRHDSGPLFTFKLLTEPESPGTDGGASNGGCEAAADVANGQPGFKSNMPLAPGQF

[4] = target: T4, Alpha-1D adrenergic receptor (Homo sapiens, UniProt P25100); assay: Displacement of [3H]prazosin from human recombinant alpha-1D adrenergic receptor expressed in CHO cell membranes after 30 mins by liquid scintillation counting method
T4 sequence (P25100 whole entry): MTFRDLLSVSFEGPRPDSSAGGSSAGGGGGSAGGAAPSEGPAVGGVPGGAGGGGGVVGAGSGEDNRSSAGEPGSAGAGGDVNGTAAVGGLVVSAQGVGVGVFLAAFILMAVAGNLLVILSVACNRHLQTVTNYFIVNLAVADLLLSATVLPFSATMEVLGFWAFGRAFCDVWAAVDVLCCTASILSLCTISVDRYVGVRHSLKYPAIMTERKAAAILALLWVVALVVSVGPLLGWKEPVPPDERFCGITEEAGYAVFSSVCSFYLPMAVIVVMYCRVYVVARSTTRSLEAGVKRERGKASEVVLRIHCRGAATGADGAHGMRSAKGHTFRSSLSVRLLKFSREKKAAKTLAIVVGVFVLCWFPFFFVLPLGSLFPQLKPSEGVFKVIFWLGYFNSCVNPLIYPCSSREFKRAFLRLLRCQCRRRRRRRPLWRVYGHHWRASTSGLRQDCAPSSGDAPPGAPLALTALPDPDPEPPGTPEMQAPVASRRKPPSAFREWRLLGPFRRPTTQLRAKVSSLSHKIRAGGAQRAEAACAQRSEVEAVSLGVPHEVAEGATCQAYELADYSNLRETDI

[5] = target: Beta-1 adrenergic receptor (Homo sapiens, UniProt P08588); assay: Displacement of [3H]CGP12177 from human recombinant beta1 adrenergic receptor expressed in HEK293 cell membranes after 90 mins by beta counting method
Beta-1 adrenergic receptor, sequence (P08588 whole entry): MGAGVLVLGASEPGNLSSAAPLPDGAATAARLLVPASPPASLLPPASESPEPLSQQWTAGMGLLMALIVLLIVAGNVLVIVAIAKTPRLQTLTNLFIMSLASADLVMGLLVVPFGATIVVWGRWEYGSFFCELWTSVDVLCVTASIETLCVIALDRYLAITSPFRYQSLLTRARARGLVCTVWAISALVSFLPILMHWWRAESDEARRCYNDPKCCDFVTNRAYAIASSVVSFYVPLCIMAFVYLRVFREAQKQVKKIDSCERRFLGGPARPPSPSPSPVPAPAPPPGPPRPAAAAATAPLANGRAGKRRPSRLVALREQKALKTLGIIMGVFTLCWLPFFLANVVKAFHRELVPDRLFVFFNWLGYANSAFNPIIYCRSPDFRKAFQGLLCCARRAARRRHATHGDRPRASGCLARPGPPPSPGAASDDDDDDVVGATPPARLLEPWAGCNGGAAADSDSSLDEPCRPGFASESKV

[6] = target: Beta-2 adrenergic receptor (Homo sapiens, UniProt P07550); assay: Displacement of [3H]CGP12177 from human recombinant beta2 adrenergic receptor expressed in HEK293 cell membranes after 90 mins by beta counting method
Beta-2 adrenergic receptor, sequence (P07550 whole entry): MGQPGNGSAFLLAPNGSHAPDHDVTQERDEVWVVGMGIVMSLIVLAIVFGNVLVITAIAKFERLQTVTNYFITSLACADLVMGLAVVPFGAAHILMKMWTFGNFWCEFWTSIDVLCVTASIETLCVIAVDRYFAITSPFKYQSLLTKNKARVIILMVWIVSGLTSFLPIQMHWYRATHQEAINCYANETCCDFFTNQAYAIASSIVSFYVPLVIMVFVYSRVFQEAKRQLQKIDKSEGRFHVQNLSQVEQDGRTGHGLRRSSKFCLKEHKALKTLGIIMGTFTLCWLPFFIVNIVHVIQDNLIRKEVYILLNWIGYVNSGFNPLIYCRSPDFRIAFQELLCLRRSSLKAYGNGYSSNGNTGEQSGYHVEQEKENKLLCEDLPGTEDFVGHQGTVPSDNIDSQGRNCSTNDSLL

[7] = target: Sigma non-opioid intracellular receptor 1 (Cavia porcellus, UniProt Q60492); assay: Displacement of [3H](+)-pentazocine from sigma1 receptor in Hartley guinea pig brain cortex after 120 mins by scintillation counting method
Sigma non-opioid intracellular receptor 1, sequence (Q60492 whole entry): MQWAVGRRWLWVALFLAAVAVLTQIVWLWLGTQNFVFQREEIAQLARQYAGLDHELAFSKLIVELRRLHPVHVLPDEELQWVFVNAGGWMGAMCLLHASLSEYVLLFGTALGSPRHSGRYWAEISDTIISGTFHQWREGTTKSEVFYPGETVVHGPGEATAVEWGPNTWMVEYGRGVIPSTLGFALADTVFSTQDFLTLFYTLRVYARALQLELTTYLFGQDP

[8] = target: Sodium-dependent dopamine transporter (Rattus norvegicus, UniProt P23977); assay: Displacement of [3H]WIN 35,428 from DAT in Sprague-Dawley rat striatum after 120 mins by scintillation counting method
Sodium-dependent dopamine transporter, sequence (P23977 whole entry): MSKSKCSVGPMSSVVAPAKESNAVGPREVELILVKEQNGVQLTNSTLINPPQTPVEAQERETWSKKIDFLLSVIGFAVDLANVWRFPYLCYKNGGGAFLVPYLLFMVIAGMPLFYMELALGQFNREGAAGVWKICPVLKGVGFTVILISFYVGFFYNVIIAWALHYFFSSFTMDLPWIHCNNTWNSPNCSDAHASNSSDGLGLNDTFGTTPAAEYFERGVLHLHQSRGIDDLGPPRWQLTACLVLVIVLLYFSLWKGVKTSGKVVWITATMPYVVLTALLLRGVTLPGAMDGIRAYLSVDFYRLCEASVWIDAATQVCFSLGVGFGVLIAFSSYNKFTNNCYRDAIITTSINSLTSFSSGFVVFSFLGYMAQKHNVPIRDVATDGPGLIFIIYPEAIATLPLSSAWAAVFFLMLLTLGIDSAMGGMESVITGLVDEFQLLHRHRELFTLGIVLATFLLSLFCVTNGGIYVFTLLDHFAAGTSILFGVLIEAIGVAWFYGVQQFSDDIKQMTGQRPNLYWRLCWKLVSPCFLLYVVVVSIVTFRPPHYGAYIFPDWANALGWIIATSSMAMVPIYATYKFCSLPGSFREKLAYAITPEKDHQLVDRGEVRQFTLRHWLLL

[9] = target: Sodium-dependent serotonin transporter (Rattus norvegicus, UniProt P31652); assay: Displacement of [3H]-citalopram from SERT in Sprague-Dawley rat midbrain after 60 mins by scintillation counting method
Sodium-dependent serotonin transporter, sequence (P31652 whole entry, the tested form may be a part): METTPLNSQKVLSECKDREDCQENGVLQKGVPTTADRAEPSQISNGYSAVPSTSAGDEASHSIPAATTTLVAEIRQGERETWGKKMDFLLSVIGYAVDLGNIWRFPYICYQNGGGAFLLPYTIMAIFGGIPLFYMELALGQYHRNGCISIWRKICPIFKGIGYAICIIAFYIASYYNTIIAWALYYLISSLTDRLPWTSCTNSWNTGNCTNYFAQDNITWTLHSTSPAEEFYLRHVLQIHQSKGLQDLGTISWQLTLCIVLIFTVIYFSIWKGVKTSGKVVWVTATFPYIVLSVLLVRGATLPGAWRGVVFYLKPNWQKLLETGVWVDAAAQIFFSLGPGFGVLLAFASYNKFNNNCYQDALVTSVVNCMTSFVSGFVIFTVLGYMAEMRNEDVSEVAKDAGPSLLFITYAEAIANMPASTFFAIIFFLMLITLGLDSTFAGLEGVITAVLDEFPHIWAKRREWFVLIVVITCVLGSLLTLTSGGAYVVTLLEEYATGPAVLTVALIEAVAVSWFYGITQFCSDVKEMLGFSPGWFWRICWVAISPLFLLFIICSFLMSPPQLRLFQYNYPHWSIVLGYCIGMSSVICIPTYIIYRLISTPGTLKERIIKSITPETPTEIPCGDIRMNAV

D(4) dopamine receptor [10] = target: T1, D(4) dopamine receptor; assay: Antagonist activity at human SP/Myc epitope-tagged dopamine D4 receptor expressed in HEK293T cells assessed as inhibition of dopamine-induced RLuc8-fused Galphai1 activation preincubated for 15 mins followed by dopamine induction measured after 2 mins by BRET assay; format: cell-based, HEK-293T
D(4) dopamine receptor [11] = target: T1, D(4) dopamine receptor; assay: Antagonist activity at human SP/Myc epitope-tagged dopamine D4 receptor expressed in HEK293T cells assessed as inhibition of dopamine-induced mVenus-fused beta-arrestin2 recruitment preincubated for 15 mins followed by dopamine induction measured after 2 mins by BRET assay; format: cell-based, HEK-293T
[12] = target: T5, Muscarinic acetylcholine receptor M1 (Homo sapiens) (UniProt P11229); assay: Antagonist activity at human SP/Myc epitope-tagged muscarinic M1 receptor expressed in HEK293T cells assessed as inhibition of carbachol-induced RLuc8-fused Galphaq activation preincubated for 15 mins followed by carbachol induction measured after 2 mins by BRET assay; format: cell-based; settings: HEK-293T
T5 sequence (whole entry): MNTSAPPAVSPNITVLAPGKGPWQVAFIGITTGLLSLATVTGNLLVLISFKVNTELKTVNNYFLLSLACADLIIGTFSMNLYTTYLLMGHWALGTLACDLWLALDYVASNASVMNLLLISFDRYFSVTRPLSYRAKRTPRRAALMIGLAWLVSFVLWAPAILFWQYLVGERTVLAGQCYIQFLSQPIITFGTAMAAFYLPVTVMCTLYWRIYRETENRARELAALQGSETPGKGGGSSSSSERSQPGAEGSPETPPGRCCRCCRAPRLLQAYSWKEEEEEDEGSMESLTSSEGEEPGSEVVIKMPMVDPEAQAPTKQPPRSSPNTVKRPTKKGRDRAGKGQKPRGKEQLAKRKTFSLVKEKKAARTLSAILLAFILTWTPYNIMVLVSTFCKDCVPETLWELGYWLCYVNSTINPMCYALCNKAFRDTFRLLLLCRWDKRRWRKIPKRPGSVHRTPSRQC

[13] = target: T5, Muscarinic acetylcholine receptor M1 (Homo sapiens); assay: Antagonist activity at human SP/Myc epitope-tagged muscarinic M1 receptor expressed in HEK293T cells assessed as inhibition of carbachol-induced mVenus-fused beta-arrestin2 recruitment preincubated for 15 mins followed by carbachol induction measured after 2 mins by BRET assay; format: cell-based; settings: HEK-293T
[14] = target: T6, Muscarinic acetylcholine receptor M4 (Homo sapiens) (UniProt P08173); assay: Antagonist activity at human SP/Myc epitope-tagged muscarinic M4 receptor expressed in HEK293T cells assessed as inhibition of carbachol-induced RLuc8-fused Galphaq activation preincubated for 15 mins followed by carbachol induction measured after 2 mins by BRET assay; format: cell-based; settings: HEK-293T
T6 sequence (whole entry): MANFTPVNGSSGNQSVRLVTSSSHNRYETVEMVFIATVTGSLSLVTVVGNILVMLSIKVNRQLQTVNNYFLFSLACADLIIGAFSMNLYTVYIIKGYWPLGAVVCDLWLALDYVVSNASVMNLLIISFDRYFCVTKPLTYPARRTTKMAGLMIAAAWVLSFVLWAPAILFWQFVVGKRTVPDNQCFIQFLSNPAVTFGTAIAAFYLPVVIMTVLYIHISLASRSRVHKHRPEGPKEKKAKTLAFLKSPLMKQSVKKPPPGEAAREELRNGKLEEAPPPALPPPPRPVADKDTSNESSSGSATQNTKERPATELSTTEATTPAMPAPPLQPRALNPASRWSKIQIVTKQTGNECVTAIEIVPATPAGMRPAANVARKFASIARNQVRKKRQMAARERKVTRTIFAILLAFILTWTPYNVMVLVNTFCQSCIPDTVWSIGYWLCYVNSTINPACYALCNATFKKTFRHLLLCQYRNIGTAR

[15] = target: T6, Muscarinic acetylcholine receptor M4 (Homo sapiens); assay: Antagonist activity at human SP/Myc epitope-tagged muscarinic M4 receptor expressed in HEK293T cells assessed as inhibition of carbachol-induced mVenus-fused beta-arrestin2 recruitment preincubated for 15 mins followed by carbachol induction measured after 2 mins by BRET assay; format: cell-based; settings: HEK-293T

D(2) dopamine receptor, sequence (P14416 whole entry): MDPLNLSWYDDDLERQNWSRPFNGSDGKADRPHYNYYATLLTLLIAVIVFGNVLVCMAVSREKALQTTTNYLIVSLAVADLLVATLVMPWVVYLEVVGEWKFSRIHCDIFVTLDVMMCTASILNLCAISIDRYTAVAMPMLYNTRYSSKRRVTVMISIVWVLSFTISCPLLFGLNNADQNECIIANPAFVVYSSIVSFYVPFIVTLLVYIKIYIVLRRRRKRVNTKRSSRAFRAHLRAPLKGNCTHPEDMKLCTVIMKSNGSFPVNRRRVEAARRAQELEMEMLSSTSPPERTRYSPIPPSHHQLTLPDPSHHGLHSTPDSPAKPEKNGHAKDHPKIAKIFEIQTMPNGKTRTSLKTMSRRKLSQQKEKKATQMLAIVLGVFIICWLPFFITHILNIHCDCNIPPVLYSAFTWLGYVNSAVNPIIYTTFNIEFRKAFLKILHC

Row | pKi (D(2) dopamine receptor) | pKi (D(3) dopamine receptor) | pKi (D(4) dopamine receptor [1]) | Ratio Ki (Homo sapiens) | pKi [2] | pKi [3] | pKi [4] | pKi [5] | pKi [6] | pKi [7] | pKi [8] | pKi [9] | pIC50 (D(4) dopamine receptor [10]) | pIC50 (D(4) dopamine receptor [11]) | Compound | Imax [12] [%] | Imax [13] [%] | Imax [14] [%] | Imax [15] [%]
1 | 6.17 | 6.21 | 9.01 | 691 | 6.36 | 6.11 | 6.00 | 4.32 | 4.36 | 8.14 | 5.47 | 5.05 | 6.93 | 8.22 | CCCCC1CCN(CCCN2C(=O)CCc3ccccc32)CC1 | – | – | – | –
2 | – | – | – | – | – | – | – | – | – | – | – | – | – | – | CN1[C@@H]2C[C@@H](OC(=O)[C@H](CO)c3ccccc3)C[C@H]1[C@@H]1O[C@H]12 | 71 | 76 | 79 | 73
